According to ChEMBL document CHEMBL4814012, “Synthesis and structure-activity relationships of 5-phenyloxazole-2-carboxylic acid derivatives as novel inhibitors of tubulin polymerization” (Bioorg Med Chem Lett, 2021):

What was measured:
A549 [1] = test: Cytotoxicity against human A549 cells assessed as reduction in cell growth by CCK8 assay; assay type: functional, cell-based
HeLa = test: Cytotoxicity against human HeLa cells assessed as reduction in cell growth by CCK8 assay; assay type: functional, cell-based
HepG2 = test: Cytotoxicity against human HepG2 cells assessed as reduction in cell growth by CCK8 assay; assay type: functional, cell-based
BEAS-2B = test: Cytotoxicity against human BEAS-2B cells assessed as reduction in cell growth by CCK8 assay; assay type: cell-based
A549 [2] = test: Induction of cell cycle arrest in human A549 cells assessed as accumulation at G1 phase at 1 uM after 24 hrs by flow cytometric analysis (reference value: 70.48%); assay type: functional
A549 [3] = test: Induction of cell cycle arrest in human A549 cells assessed as accumulation at G2/M phase at 1 uM after 24 hrs by flow cytometric analysis (reference value: 14.08%); assay type: functional
Tubulin (Homo sapiens) [4] = biological target: T1, Tubulin (Homo sapiens) (UniProt P68371+Q9H4B7+P0DPH7+P68366+Q13509+Q71U36+P04350+Q3ZCM7+P07437+P68363+Q9BQE3+Q6PEY2+Q13885+Q9BVA1+Q9BUF5); test: Inhibition of tubulin polymerization (unknown origin) at 40 uM measured every 30 secs for 90 mins relative to control; assay type: protein-complex assay
A549 [5] = test: Induction of cell cycle arrest in human A549 cells assessed as accumulation at S phase at 1 uM after 24 hrs by flow cytometric analysis (reference value: 15.44%); assay type: functional
Tubulin = test: (§1) Inhibition of tubulin polymerization (unknown origin) measured every 30 secs for 90 mins; assay type: protein-complex assay, Homo sapiens
Tubulin (Homo sapiens) [6] = biological target: T1, Tubulin (Homo sapiens); test: as §1; assay type: protein-complex assay
[7] = Selectivity ratio of IC50 for human BEAS-2B cells to IC50 for human A549 cells; assay type: toxicity; settings: BEAS-2B cells versus A549 cells, read-out: Ratio IC50

Compound	IC50 (A549 [1])	IC50 (HeLa)	IC50 (HepG2)	also measured
COc1ccc(C(=O)c2ncc(-c3ccc(OC)cc3)o2)cc1	> 30 µM	> 30 µM	> 30 µM	
COc1cc(-c2cnc(C(=O)Nc3ccc([N+](=O)[O-])cc3)o2)cc(OC)c1OC	> 30 µM	> 30 µM	> 30 µM	
COc1ccc(NC(=O)c2ncc(-c3cc(OC)c(OC)c(OC)c3)o2)cc1	25.8 µM	20.5 µM	> 30 µM	
O=C(Nc1ccc(O)cc1)c1ncc(-c2ccc(F)cc2)o1	> 30 µM	> 30 µM	> 30 µM	
O=C(Nc1ccc(O)cc1)c1ncc(-c2ccccc2)o1	1.08 µM	0.78 µM	1.27 µM	IC50 (BEAS-2B): 3.36 µM; Activity (A549 [2]): 1.14%; Activity (A549 [3]): 85.81%; inhibition (Tubulin (Homo sapiens) [4]): 91%; Activity (A549 [5]): 13.05%; IC50 (Tubulin): 16.7 µM; inhibition (Tubulin (Homo sapiens) [6]): Dose-Dependent Effect; selectivity ratio [7]: 3.11
COc1ccc(-c2cnc(C(=O)c3ccccc3)o2)cc1	> 30 µM	> 30 µM	> 30 µM	
COc1ccc(NC(=O)c2ncc(-c3ccc(O)cc3)o2)cc1	11.3 µM	9.67 µM	17.3 µM	
O=C(c1ccc(O)cc1)c1ncc(-c2ccccc2)o1	> 30 µM	> 30 µM	> 30 µM	
COc1cc(-c2cnc(C(=O)Nc3ccc(O)cc3)o2)cc(OC)c1OC	> 30 µM	> 30 µM	> 30 µM	
COc1cc2c(c(OC)c1OC)-c1ccc(OC)c(=O)cc1[C@@H](NC(C)=O)CC2 [COLCHICINE]	0.053 µM			IC50 (BEAS-2B): 0.016 µM
COc1cc(C(=O)c2ncc(-c3ccccc3)o2)cc(OC)c1OC	> 30 µM	> 30 µM	> 30 µM	
O=C(c1ncc(-c2ccccc2)o1)N1CCN(c2ccc(Cl)cc2)CC1	> 30 µM	> 30 µM	> 30 µM	
O=C(Nc1cccc(O)c1)c1ncc(-c2ccccc2)o1	> 30 µM	> 30 µM	> 30 µM	
COc1cc(-c2cnc(C(=O)Nc3ccccc3)o2)cc(OC)c1OC	> 30 µM	27.3 µM	> 30 µM	
Cc1ccc(NC(=O)c2ncc(-c3ccccc3)o2)cc1	> 30 µM	> 30 µM	> 30 µM	
O=C(c1ncc(-c2ccccc2)o1)N1CCN(c2ccccc2)CC1	> 30 µM	> 30 µM	> 30 µM	
CCN(CC)c1ccc(NC(=O)c2ncc(-c3ccccc3)o2)cc1	> 30 µM	> 30 µM	> 30 µM	
COc1cc(-c2cnc(C(=O)c3ccccc3)o2)cc(OC)c1OC	> 30 µM	> 30 µM	> 30 µM	
COc1ccc(-c2cnc(C(=O)Nc3ccc(O)cc3)o2)cc1F	1.2 µM	1.12 µM	1.81 µM	IC50 (BEAS-2B): 2.6 µM; inhibition (Tubulin (Homo sapiens) [4]): 46%; IC50 (Tubulin): > 40 µM; selectivity ratio [7]: 2.17
COc1ccc(NC(=O)c2ncc(-c3ccccc3)o2)cc1	> 30 µM	> 30 µM	> 30 µM	
COc1ccc(-c2cnc(C(=O)Nc3ccc(O)cc3)o2)cc1	1.93 µM	1.44 µM	2.76 µM	IC50 (BEAS-2B): 4.58 µM; inhibition (Tubulin (Homo sapiens) [4]): 27%; IC50 (Tubulin): > 40 µM; selectivity ratio [7]: 2.37
COc1cccc(-c2cnc(C(=O)c3ccccc3)o2)c1	> 30 µM	> 30 µM	> 30 µM	
CN(C)c1ccc(NC(=O)c2ncc(-c3ccccc3)o2)cc1	> 30 µM	> 30 µM	> 30 µM	
O=C(Nc1ccc(Cl)cc1)c1ncc(-c2ccccc2)o1	> 30 µM	> 30 µM	> 30 µM	
COc1cc(-c2cnc(C(=O)Nc3ccc(F)cc3)o2)cc(OC)c1OC	> 30 µM	> 30 µM	> 30 µM	
